From patent publication US8202910B2 (Sequella, Inc., priority 2006, dated 2012)
Converted amounts (≈) assume the structure as drawn. “And” between values parts separate entries of the source, which are not always exact repeats. Equal values may be shown once. Read-outs that look alike come from different tables or passages of the source.

How the values were obtained:
M. tuberculosis H37Rv [1] = assay: MIC by BACTEC 460; assay type: cell-based, Mycobacterium tuberculosis; conditions: for MIC: Mycobacterium tuberculosis, H37RV
[2] = tested on: RIF^R M. tuberculosis isolate 3185; assay: microbe, parasite or virus in culture; assay type: cell-based; conditions: for concentration to which the strain was susceptible: strain 3185; for MIC: Mycobacterium tuberculosis, read-out: MIC (BACTEC)
[3] = tested on: RIF^R M. tuberculosis isolate 2482; assay: microbe, parasite or virus in culture; assay type: cell-based; conditions: for concentration to which the strain was susceptible: strain 2482; for MIC (BACTEC): Strain 2482
[4] = tested on: H37Rv strain of Mycobacterium tuberculosis; assay: microbe, parasite or virus in culture; assay type: cell-based
wild type of M.tb = assay: MIC, secondary screening, wild type; assay type: cell-based, Mycobacterium tuberculosis; conditions: WT
M. tuberculosis H37Rv [5] = assay: In vivo efficacy, mice infected i.v. with M. tuberculosis, CFU in spleen and lungs; design: species or system C57BL/6 mice; conditions: during 4-6 weeks of chemotherapy
[6] = tested on: RIF^R M. tuberculosis strain 3185; assay type: cell-based; conditions: strain 3185
[7] = tested on: RIF^R M. tuberculosis strain 2482; assay type: cell-based; conditions: strain 2482
[8] = tested on: M. tuberculosis H37Rv (Pasteur); assay: Rapid in vivo model of TB, body weight of infected mice; design: species or system C3H female mice
M. tuberculosis H37Rv [9] = assay: Standard chronic mouse model of tuberculosis, CFU in lung; assay type: in vivo, C57BL/6 female mice
[10] = tested on: H37Rv strain of Mycobacterium tuberculosis; conditions: background statement; cited from earlier work
cells = assay: LD50 for selectivity index (Table 10); assay type: cell-based, Mycobacterium tuberculosis
Text: Table 10 lists MIC and LD50 data for selected compounds. […] Table 11 lists MIC data for purified substituted ethylene diamines in comparison to ethambutol (EMB).

[11] = tested on: monkey kidney cells (Vero); assay: In vitro toxicity, Vero cells; assay type: cell-based; conditions: Primates
Description: Twenty six compounds (including 37, 59 and 109) were tested in an in vitro model of toxicity using monkey kidney cells (Vero) and human cervical cancer cells (HeLa) using methods well known to those skilled in the art. The data from this toxicity testing and the MIC data were used to calculate a selectivity index (SI), the ratio of IC50:MIC (Table 15). Selectivity Indexes were ranging from 1.76 to 16.67.

[12] = Toxicity, dose escalation study in mice
Description: Toxicity was assessed using a dose escalation study. This study was performed with ten C57BL/6 mice per candidate. Every two days, the mice were administered an increased concentration of the drug, and monitored for detrimental effects. The administration scheme was 50, 100, 200, 400, 600, 800 and 1000 mg/kg.

[13] = Maximum tolerated dose, one-time gavage dose in mice; assay type: in vivo
Description: […] Each dose of each compound consisted of one group of 3 mice. Monitoring of the mice was done twice a day for the duration of the experiment. […] The MTD (mg/kg) is the highest dose that results in no lethality/tissue abnormality.
• 1. […] The compounds are dissolved in the appropriate concentration of ethanol in distilled water and administered in a volume of 0.2 ml per mouse. • 2. Observation of mice: Mice will be observed 4 and 6 hours post administration, then twice daily for one week. Survival and body weight of mice will be closely monitored throughout the study. • 3. […] Critical organs will be aseptically removed and observed; tissues from the liver, heart, and kidneys are extracted and placed into 10% formalin solution. These fixed tissues are sectioned and examined for abnormalities resulting from drug toxicity.

[14] = assay type: in vitro ADME; conditions: 6 h
Description: (§1) Initially, analytical methods for determination of the compounds had been developed that allowed to carry out all the PK experiments, sec FIG. 29. Here is a brief description of the experiment: (1) plasma spiked with tested compounds and 10 uL of Terfenadine or plasma samples (200 uL) added; (2) ACN (2 mL) added to precipitate protein and spin at 2,500 rpm; (3) evaporate supernatant to dryness; (4) add 200 uL of the diluting solvent: methanol (with 0.1% of trifluoroacetic acid): ammonium acetate (80/20); (5) vortex, spin, and use supernatant; (6) run LC/MS/MS on Sciex API 3000.
Biostability studies of the compounds in plasma were carried out using concentrations 1 and 15 mg/ml. The compounds were incubated for 1, 2, 3 & 6 hr at 37° C. (Table 18).

in vivo = assay: in vivo; design: species or system mice; conditions: mouse
Description: as §1
Pilot PK study of the compounds 37, 59, and 109 in mice was conducted using a cassette dosing: all the three analogs were formulated together in saline at 1.5 mg/mL, and administered to mice simultaneously orally at 25 mg/kg, peritoneally at 6 mg/kg, and intravenously. […] Obtained data are presented on FIGS. 30, 31, and 32 (tested compounds were studied under the NCI′ indexation NSC) and summarized in Table 19.

[H]/N=C(/N)N[C@H]1[C@H](O)[C@@H](O)[C@H](O[C@@H]2O[C@@H](C)[C@](O)(C=O)[C@H]2O[C@@H]2O[C@@H](CO)[C@H](O)[C@@H](O)[C@@H]2NC)[C@@H](N/C(N)=N\[H])[C@@H]1O [SM, Streptomycin]
MIC (M. tuberculosis H37Rv [1]; read-out: MIC (BACTEC)): 0.25 µg/mL (≈ 0.43 µM) | concentration to which the strain was susceptible [2]: 2 mg/L | concentration to which the strain was susceptible [3]: 2 mg/L

CC[C@@H](CO)NCCN[C@@H](CC)CO [EMB, Ethambutol, reference compound]
MIC [4]: 8.37 µM and 7.25 µM | MIC ([4]; Mycobacterium tuberculosis, H37RV, read-out: MIC): 7.19 µM | MIC (M. tuberculosis H37Rv [1]; reference in head of Table 11, read-out: BACTEC MIC of EMB): 2.5 µg/mL | MIC (wild type of M.tb; Mycobacterium tuberculosis, value in brackets, read-out: MIC (or uM)): 11.1 µM | MIC (wild type of M.tb; Mycobacterium tuberculosis, EMB, RL241, Cmpd#59 as 2HCl salt, Cmpd#109 as 2CF3COOH salt, read-out: MIC): 3.12 µg/mL | MIC (wild type of M.tb; EMB, RL241, Cmpd#59 as 2HCl salt, Cmpd#109 as 2CF3COOH salt): 1.6 to 1.8 µg/mL | decrease of load of bacteria in organs (M. tuberculosis H37Rv [5]): 1.0-2.0 logs | MIC [2]: 2.5 µg/mL (≈ 12.2 µM) | concentration to which the strain was susceptible [2]: 2.5 mg/L | concentration to which the strain was susceptible [3]: 2.5 mg/L | interaction of 0.5 MIC ethambutol with rifampicin [6]: synergy was not observed | interaction of 0.5 MIC ethambutol with rifampicin [7]: did not show any additive or synergistic activity | body weight of infected mice ([8]; Rif (2 mg/kg)-EMB (10 mg/kg) combination): No improvement | CFU in lung (M. tuberculosis H37Rv [9]; INH+RIF+EMB at 25, 20 and 100 mg/kg, wk 4): 3.7 log10CFU | Minimum Inhibition Concentration (MIC) [10]: about 5 μg/ml

CC1(C)C2CCC(CNCCNCC(c3ccccc3)c3ccccc3)[C@@H]1C2 (stereo partly drawn) [Compound 37, N-(2,2-Diphenylethyl)-N′-(−)-cis-(myrtanyl)ethane-1,2-diamine]
MIC ([4]; Mycobacterium tuberculosis, H37RV, Table 10, from uM and MW, read-out: MIC): 7.75 µg/mL | MIC ([4]; Mycobacterium tuberculosis, H37RV, Table 10, read-out: MIC): 15.6 µM | MIC ([4]; Mycobacterium tuberculosis, H37RV, Table 15, read-out: MIC): 7.8 µM | SI (Selectivity Index) (cells; LD50 : MIC): 2.048 | LD50 (cells; concentration at which 50% of the cells are killed): 32 µM | LD50 (cells; from uM and MW): 15.872 µg/mL | IC50 [11]: 32 µM | fatal dose ([12]; C57BL/6, mouse, in vivo, 2 days): 100 mg/kg | toxic dose ([12]; dose escalation): 100 mg/kg | Day of death ([13]; 37 at 100 mg/kg (Table 16)): 1 | Mice ([13]; 37 at 100 mg/kg (Table 16), day 1): 2 to 4 h | Mice ([13]; 37 at 100 mg/kg (Table 16), day 2): 2 | Mice ([13]; 37 at 100 mg/kg (Table 16), day 3): 2 | Mice ([13]; 37 at 100 mg/kg (Table 16), day 4): 2 | Mice ([13]; 37 at 100 mg/kg (Table 16), day 6): 2 | Mice ([13]; 37 at 100 mg/kg (Table 16), day 7): 2 | Mice ([13]; 37 at 100 mg/kg (Table 17), day 1): 3 | Mice ([13]; 37 at 100 mg/kg (Table 17), day 2): 3 | Mice ([13]; 37 at 100 mg/kg (Table 17), day 3): 3 | Mice ([13]; 37 at 100 mg/kg (Table 17), day 4): 3 | Mice ([13]; 37 at 100 mg/kg (Table 17), day 5): 3 | Mice ([13]; 37 at 100 mg/kg (Table 17), day 6): 3 | Mice ([13]; 37 at 100 mg/kg (Table 17), day 7): 3 | Mice ([13]; 37 at 300 mg/kg, day 1): 3 | Mice ([13]; 37 at 300 mg/kg, day 2): 3 | Mice ([13]; 37 at 300 mg/kg, day 3): 3 | Mice ([13]; 37 at 300 mg/kg, day 4): 3 | Mice ([13]; 37 at 300 mg/kg, day 5): 3 | Mice ([13]; 37 at 300 mg/kg, day 6): 3 | Mice ([13]; 37 at 300 mg/kg, day 7): 3 | changes in organs ([13]; mice surviving one week): No visible changes in organs | Biostability in plasma (% ↓) ([14]; dog): stable | Biostability in plasma (% ↓) ([14]; human): 20% ↓ | Biostability in plasma (% ↓) ([14]; mouse): stable | Biostability in plasma (% ↓) ([14]; rat): 35% ↓ | AUC (in vivo; ip, 6 mg/kg): 1370 ng·h/mL | Cmax (in vivo; ip, 6 mg/kg): 630 ng/mL | Urine excretion (%) (in vivo; ip, 6 mg/kg): <0.01% | bioavailability (in vivo; ip, 6 mg/kg): 72% | half-life (in vivo; ip, 6 mg/kg): 4.9 h | AUC (in vivo; iv, 3 mg/kg): 954 ng·h/mL | Cmax (in vivo; iv, 3 mg/kg): 970 ng/mL | Urine excretion (%) (in vivo; iv, 3 mg/kg): .71% | clearance (in vivo; iv, 3 mg/kg): 58.8 mL/min/kg | half-life (in vivo; iv, 3 mg/kg): 4.8 h | AUC (in vivo; po, 25 mg/kg): 1600 ng·h/mL | Cmax (in vivo; po, 25 mg/kg): 263 ng/mL | bioavailability (in vivo; po, 25 mg/kg): 3.3%

CO[C@H]1/C=C/O[C@@]2(C)Oc3c(C)c(O)c4c(O)c(c(/C=N/N5CCN(C)CC5)c(O)c4c3C2=O)NC(=O)/C(C)=C\C=C\[C@H](C)[C@H](O)[C@@H](C)[C@@H](O)[C@@H](C)[C@H](OC(C)=O)[C@@H]1C [RIF, Rifampicin]
MIC (BACTEC) (M. tuberculosis H37Rv [1]; H37Rv): 0.17 µg/mL (≈ 0.207 µM) | MIC (M. tuberculosis H37Rv [1]; read-out: MIC (BACTEC)): 0.2 µg/mL (≈ 0.243 µM) | MIC [2]: 24 µg/mL (≈ 29.2 µM) | MIC (BACTEC) ([2]; isolate 3185): 24 µg/mL (≈ 29.2 µM) | MIC ([3]; Mycobacterium tuberculosis, read-out: MIC (BACTEC)): > 100 µg/mL | MIC (BACTEC) ([3]; listed as Rifampicin): > 100 µg/mL | MIC (BACTEC) ([3]; listed as rifampicin): > 100 µg/mL | average weight ([8]; single drug alone (SQ109 10 mg/kg; RIF 2 mg/kg), by the 3 wk): 19.7 g | CFU in lung (M. tuberculosis H37Rv [9]; RIF (20 mg/kg) by itself, 4 week therapy): 5.8 log10
